Reference: PMC11822212, “High-throughput screening identifies Aurora kinase B as a critical therapeutic target for Merkel cell carcinoma” (Nature Communications, 2025)

Key:
Format in all cases: cell-based, human
MCC13 cells (VN-MCC) = test: qHTS cell viability (CellTiter-Glo, 72 h; primary and follow-up small molecule screen); conditions: for Percent viability: MCC13, 72h
MCC26 cells (VN-MCC) = test: as above; conditions: for Percent viability: MCC26, 72h
UISO cells (VN-MCC) = test: as above; conditions: UISO; for Percent viability: 72h
WAGA cells (VP-MCC) = test: as above; conditions: WAGA; for Percent viability: 72h
MKL-1 cells (VP-MCC) = test: as above; conditions: for Percent viability: MKL1, 72h
MKL-2 cells (VP-MCC) = test: as above; conditions: for Percent viability: MKL2, 72h
[1] = system: VP-MCC cell lines (WAGA, MKL-1, MKL-2); test: qHTS cell viability, VP-MCC cell lines as a group (mean AUC, VP.MCC.avg); conditions: re-tested in triplicate, follow-up screen
GDSC cancer cell lines = test: Genomics of Drug Sensitivity in Cancer (GDSC) IC50 comparison across cancer cell lines; conditions: own IC50 estimates compared with public IC50 data
Experimental: Palo Alto, CA, USA) for these compounds from our small molecule screen. Following the graphing format in the GDSC database, compounds were ranked by IC50 and plotted in Rstudio using ggplot2, ggrepel, and scales packages. page 9: Supplementary Fig. S6. Au rora kinase inhibi tors mor e potentl y reduc e viability in VP-MCC than VN-MCC. […] Cell viability was measured by CellTiter- Glo at 72 h and by manual cell counts at 144 h. […] Consistent across n = 3 replicates . B) IC50 values (molar) for each aurora kinase inhibitor in each MCC cell line. […] IC50 values from GDSC (Gray-scale and green) were combined with IC50 values determined in our study (purple) and then ranked. n = number of experimental replicates for each cell line.

**Q.** What does the source list for `Cc1cc(Nc2cc(N3CCN(C)CC3)nc(Sc3ccc(NC(=O)C4CC4)cc3)n2)[nH]n1` [Tozasertib, reference compound]?
**A.** Percent viability (MCC13 cells (VN-MCC); Log (M) -5.33646): 14.5%; Percent viability (MCC13 cells (VN-MCC); Log (M) -5.81358): 69.4%; Percent viability (MCC13 cells (VN-MCC); Log (M) -6.2907): 72.9%; Percent viability (MCC13 cells (VN-MCC); Log (M) -6.76782): 89.8%; Percent viability (MCC13 cells (VN-MCC); Log (M) -7.24494): 103.0%; Percent viability (MCC13 cells (VN-MCC); Log (M) -7.72207): 85.9%; Percent viability (MCC13 cells (VN-MCC); Log (M) -8.19919): 106.1%; Percent viability (MCC13 cells (VN-MCC); Log (M) -8.67631): 96.2%; Percent viability (MCC13 cells (VN-MCC); Log (M) -9.15343): 118.3%; Percent viability (MCC13 cells (VN-MCC); Log (M) -9.63055): 100.0%; Percent viability (MCC13 cells (VN-MCC); Log (M) -10.1077): 108.5%; Area under the dose-response curve (AUC) MCC13 Replicate 1 (MCC13 cells (VN-MCC); follow-up screen, MCC13, replicate 1): 420.2; Area under the dose-response curve (AUC) MCC13 Replicate 2 (MCC13 cells (VN-MCC); follow-up screen, MCC13, replicate 2): 430.9; Area under the dose-response curve (AUC) MCC13 Replicate 3 (MCC13 cells (VN-MCC); follow-up screen, MCC13, replicate 3): 459.4; Percent viability (MCC26 cells (VN-MCC); Log (M) -5.33646): 26.6%; Percent viability (MCC26 cells (VN-MCC); Log (M) -5.81358): 59.4%; Percent viability (MCC26 cells (VN-MCC); Log (M) -6.2907): 79.7%; Percent viability (MCC26 cells (VN-MCC); Log (M) -6.76782): 87.3%; Percent viability (MCC26 cells (VN-MCC); Log (M) -7.24494): 90.3%; Percent viability (MCC26 cells (VN-MCC); Log (M) -7.72207): 87.4%; Percent viability (MCC26 cells (VN-MCC); Log (M) -8.19919): 90.8%; Percent viability (MCC26 cells (VN-MCC); Log (M) -8.67631): 96.9%; Percent viability (MCC26 cells (VN-MCC); Log (M) -9.15343): 92.6%; Percent viability (MCC26 cells (VN-MCC); Log (M) -9.63055): 87.8%; Percent viability (MCC26 cells (VN-MCC); Log (M) -10.1077): 88.7%; Area under the dose-response curve (AUC) MCC26 Replicate 1 (MCC26 cells (VN-MCC); follow-up screen, MCC26, replicate 1): 399.1; Area under the dose-response curve (AUC) MCC26 Replicate 2 (MCC26 cells (VN-MCC); follow-up screen, MCC26, replicate 2): 396.0; Area under the dose-response curve (AUC) MCC26 Replicate 3 (MCC26 cells (VN-MCC); follow-up screen, MCC26, replicate 3): 410.6; Percent viability (UISO cells (VN-MCC); Log (M) -5.33646): 29.1%; Percent viability (UISO cells (VN-MCC); Log (M) -5.81358): 58.8%; Percent viability (UISO cells (VN-MCC); Log (M) -6.2907): 69.6%; Percent viability (UISO cells (VN-MCC); Log (M) -6.76782): 70.0%; Percent viability (UISO cells (VN-MCC); Log (M) -7.24494): 74.4%; Percent viability (UISO cells (VN-MCC); Log (M) -7.72207): 84.6%; Percent viability (UISO cells (VN-MCC); Log (M) -8.19919): 94.4%; Percent viability (UISO cells (VN-MCC); Log (M) -8.67631): 100.2%; Percent viability (UISO cells (VN-MCC); Log (M) -9.15343): 102.6%; Percent viability (UISO cells (VN-MCC); Log (M) -9.63055): 98.1%; Percent viability (UISO cells (VN-MCC); Log (M) -10.1077): 97.1%; Area under the dose-response curve (AUC) UISO Replicate 1 (UISO cells (VN-MCC); follow-up screen, replicate 1): 350.8; Area under the dose-response curve (AUC) UISO Replicate 2 (UISO cells (VN-MCC); follow-up screen, replicate 2): 389.2; Area under the dose-response curve (AUC) UISO Replicate 3 (UISO cells (VN-MCC); follow-up screen, replicate 3): 355.0; Percent viability (WAGA cells (VP-MCC); Log (M) -5.33646): 23.8%; Percent viability (WAGA cells (VP-MCC); Log (M) -5.81358): 31.7%; Percent viability (WAGA cells (VP-MCC); Log (M) -6.2907): 25.7%; Percent viability (WAGA cells (VP-MCC); Log (M) -6.76782): 41.2%; Percent viability (WAGA cells (VP-MCC); Log (M) -7.24494): 47.8%; Percent viability (WAGA cells (VP-MCC); Log (M) -8.19919): 107.2%; Percent viability (WAGA cells (VP-MCC); Log (M) -8.67631): 105.4%; Percent viability (WAGA cells (VP-MCC); Log (M) -9.15343): 101.2%; Percent viability (WAGA cells (VP-MCC); Log (M) -9.63055): 100.0%; Percent viability (WAGA cells (VP-MCC); Log (M) -10.1077): 100.0%; Area under the dose-response curve (AUC) WAGA Replicate 1 (WAGA cells (VP-MCC); follow-up screen, replicate 1): 353.1; Area under the dose-response curve (AUC) WAGA Replicate 2 (WAGA cells (VP-MCC); follow-up screen, replicate 2): 343.3; Area under the dose-response curve (AUC) WAGA Replicate 3 (WAGA cells (VP-MCC); follow-up screen, replicate 3): 330.6; Percent viability (MKL-1 cells (VP-MCC); Log (M) -5.33646): 35.7%; Percent viability (MKL-1 cells (VP-MCC); Log (M) -5.81358): 29.2%; Percent viability (MKL-1 cells (VP-MCC); Log (M) -6.2907): 29.7%; Percent viability (MKL-1 cells (VP-MCC); Log (M) -6.76782): 36.8%; Percent viability (MKL-1 cells (VP-MCC); Log (M) -7.24494): 39.2%; Percent viability (MKL-1 cells (VP-MCC); Log (M) -7.72207): 37.5%; Percent viability (MKL-1 cells (VP-MCC); Log (M) -8.19919): 101.6%; Percent viability (MKL-1 cells (VP-MCC); Log (M) -8.67631): 103.8%; Percent viability (MKL-1 cells (VP-MCC); Log (M) -9.15343): 98.2%; Percent viability (MKL-1 cells (VP-MCC); Log (M) -9.63055): 98.1%; Percent viability (MKL-1 cells (VP-MCC); Log (M) -10.1077): 100.0%; Area under the dose-response curve (AUC) MKL-1 Replicate 1 (MKL-1 cells (VP-MCC); follow-up screen, MKL-1, replicate 1): 300.3; Area under the dose-response curve (AUC) MKL-1 Replicate 2 (MKL-1 cells (VP-MCC); follow-up screen, MKL-1, replicate 2): 306.3; Area under the dose-response curve (AUC) MKL-1 Replicate 3 (MKL-1 cells (VP-MCC); follow-up screen, MKL-1, replicate 3): 312.1; Percent viability (MKL-2 cells (VP-MCC); Log (M) -5.33646): 29.1%; Percent viability (MKL-2 cells (VP-MCC); Log (M) -5.81358): 82.7%; Percent viability (MKL-2 cells (VP-MCC); Log (M) -6.2907): 74.7%; Percent viability (MKL-2 cells (VP-MCC); Log (M) -6.76782): 62.9%; Percent viability (MKL-2 cells (VP-MCC); Log (M) -7.24494): 51.8%; Percent viability (MKL-2 cells (VP-MCC); Log (M) -7.72207): 51.5%; Percent viability (MKL-2 cells (VP-MCC); Log (M) -8.19919): 79.6%; Percent viability (MKL-2 cells (VP-MCC); Log (M) -8.67631): 111.3%; Percent viability (MKL-2 cells (VP-MCC); Log (M) -9.15343): 116.9%; Percent viability (MKL-2 cells (VP-MCC); Log (M) -9.63055): 110.0%; Percent viability (MKL-2 cells (VP-MCC); Log (M) -10.1077): 101.6%; Area under the dose-response curve (AUC) MKL-2 Replicate 1 (MKL-2 cells (VP-MCC); follow-up screen, MKL-2, replicate 1): 388.8; Area under the dose-response curve (AUC) MKL-2 Replicate 2 (MKL-2 cells (VP-MCC); follow-up screen, MKL-2, replicate 2): 384.9; Area under the dose-response curve (AUC) MKL-2 Replicate 3 (MKL-2 cells (VP-MCC); follow-up screen, MKL-2, replicate 3): 409.6; VP-MCC viability (in words) [1]: consistently and potently reduced VP-MCC viability; potency in VP-MCC cell lines versus other human cancer cell lines (GDSC) (GDSC cancer cell lines): higher in VP-MCC cell lines than in hundreds of other human cancer cell lines
